Experimental data as given in patent publication US20240197890A1, “FLAVONE DERIVATIVES AND USES IN TARGETING CK2-MEDIATED DISEASES AND CONDITIONS” (Salk Institute for Biological Studies, priority 2020, published 2024).

Legend:
[1] = molecular target: T1, CK2α1 (Homo sapiens, UniProt P68400); assay: Thermal shift assay with Western blotting in astrocyte extracts; format: binding; conditions: extracts of iPSC-derived astrocytes
T1 construct: endogenous in cells
Protocol: Thermal shift assay and TPP. […] Protein concentration was determined by BCA assay (Bio-Rad), and lysates were diluted to 2 mg/mL. […] Reactions were incubated at rt for 30 min, after which each treated extract was divided into 10 aliquots of 95 μl in PCR strip tubes and stored on ice. […] A small aliquot (5 μl) of supernatant was saved for Western blotting, and the rest was snap frozen at −80 C and submitted for LC-MS/MS.

[2] = system: iGluta neurons co-cultured with BD or CT astrocytes; assay: Neuronal activity of iGluta neurons co-cultured with pretreated astrocytes; format: cell-based, human; conditions: BD astrocytes pretreated 5 h with IL1β and 20 μM compound, compared to vehicle
Source text: Activity of CT astrocytes is also renormalized (C+vs. D+).

[3] = system: IL6 and IL8 expression in astrocytes; assay: Activation assay, ddPCR of cytokine expression in IL1-β-activated astrocytes; format: cell-based, human; conditions: astrocytes and microglia; FIG. 1D, FIG. 2C
Protocol: Activation assays and ddPCR. HCA or H1-derived astrocytes were treated with vehicle (DMSO) or 20 μM compound and stimulated with IL1-B 10 ng/mL for 5 h. Cells were scraped into RNA-Bee and total RNA was purified using the Direct-zol RNA kit (Zymo Research). RNA concentration was measured using Nanodrop and RNA was reverse transcribed into cDNA using the High Capacity cDNA Reverse Transcriptase Kit (Applied Biosystems). Reaction mixes consisting of TaqMan FAM probe (IL6, IL8, CSNK2A1, CSNK2A2), control TaqMan ACTB-VIC probe (TFS 4326315E), ddPCR Supermix for Probes (Bio-Rad 186-3024), and cDNA were formed into oil droplets using the QX200 Droplet Generator. After amplification (Bio-Rad C1000 Touch Thermal Cycler) according to manufacturer's instructions, the plate was read in the QX200 Droplet Reader.

[4] = system: microglial phagocytosis of pHrodo E. coli beads; assay: Microglial phagocytosis assay; format: cell-based, human; conditions: 20 μM, 5 h treatment
Protocol: Phagocytosis assay. […] Then, 0.5 μl of pH rodo E. coli-FITC beads (Thermo Fisher, P35366) was added per well with gentle mixing and the cells were incubated for another 4 hours. pHrodo beads only fluoresce when they are internalized in cells. Cells were then collected by scraping, washed with FACS buffer, and counter-stained with Zombie Violet to assess viability. Live cells were analyzed on the FACS Canto instrument for geometric mean fluorescence on the FITC channel. The background FITC fluorescence value (pHrodo beads only) was subtracted from each mean, and fold-change was computed across experimental groups.

[5] = system: LPS-induced cytokine release in human iPSC-derived microglia; assay: Cytokine release assay in LPS-stimulated iPSC-derived microglia; format: cell-based; conditions: 20 μM, 5 hours, panel of 36 cytokines
Protocol: Cytokine release assay. […] Subsequently, media cleared of cells and debris was collected, snap-frozen and stored at -80 C until processing with the Human Cytokine Array kit (R&D Systems, Catalog #ARY005). Briefly, media was diluted in Array Buffer 4 and incubated with a cocktail of biotinylated detection antibodies for 1 h at room temperature with rocking. The resulting immunocomplexes were incubated with nitrocellulose membranes spotted with capture antibodies overnight at 4 C (see below for full list of targets). The membranes were washed 4× with Wash Buffer, then incubated with IRDye 800CW Streptavidin for 30 minutes at room temperature (1:2000 in Array Buffer 5, LI-COR #926-32230). The membranes were washed 4× and imaged with an Odyssey CLx instrument. Intensity for each spot was quantified with ImageStudio. Technical duplicate values for each target were averaged, and we determined differential cytokine release by microglia exposed to LPS+vehicle versus vehicle only (n=2 biological replicates, two-tailed t-tests, P<0.05).

[6] = molecular target: T2, recombinant human CK2a1 kinase (Homo sapiens, UniProt P68400); assay: In vitro kinase assay (PhosphoSens, Cysteine-Sox sensor peptide); format: biochemical; conditions: FIG. 4A
T2 construct: purchased Thermo Fisher PV3248
T2 sequence (P68400 whole entry): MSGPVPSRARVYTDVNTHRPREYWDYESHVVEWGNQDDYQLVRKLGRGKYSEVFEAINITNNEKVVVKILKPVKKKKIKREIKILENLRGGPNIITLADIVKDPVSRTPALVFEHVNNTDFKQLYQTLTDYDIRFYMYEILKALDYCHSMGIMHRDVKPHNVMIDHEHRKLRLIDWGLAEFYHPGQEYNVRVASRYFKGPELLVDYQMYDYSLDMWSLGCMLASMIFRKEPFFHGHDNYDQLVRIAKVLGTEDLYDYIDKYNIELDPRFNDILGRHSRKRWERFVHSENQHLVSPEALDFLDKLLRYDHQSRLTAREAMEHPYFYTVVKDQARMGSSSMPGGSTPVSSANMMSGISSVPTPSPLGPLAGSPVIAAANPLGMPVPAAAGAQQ
Protocol: Kinase assays. In vitro kinase assays were run using the Cysteine-Sox-Kinase Sensor AQT0696, 96 assay Kit (AssayQuant Tech, CSKS-AQT0696). […] Slopes corresponding to linear reaction rates were obtained for each compound concentration (RFU/sec), normalized to DMSO controls, and IC50 values were determined by applying the dose response non-linear regression model in GraphPad Prism. For kinase assays using postmortem brain tissue lysates, brain tissues were homogenized at 4° C. using a Bullet Blender (Next Advance) in kinase buffer (20 mM HEPES 7.4 pH, 150 mM NaCl, 1% Triton-X, 1 mM EDTA, 1 mM EGTA plus Halt Protease and Phosphase Inhibitor Cocktail). After sonication and clarification, protein concentration was measured by BCA Assay. CK2 activity was measured as described above, except lysates were used instead of purified kinase at 2 μL/well (˜0.3-0.4 ug protein per reaction). […] Patient lysates were individually preincubated with 20 μM CX4945 for 30 min at room temperature before initiating kinase kinetic assays.

T1 sequence (P68400 whole entry): as above

COc1cc(-c2cc(=O)c3c(O)cc(O)cc3o2)ccc1O [CHR, chrysoeriol]
binding / thermal stabilization of CK2a [1]: dose-dependently stabilized | binding / thermal stabilization of CK2a ([1]; listed as chrysoeriol): bind CK2a | neuronal activity (mean firing rate) [2]: increased | dose dependence of anti-inflammatory effects [3]: dose-dependent | microglial phagocytosis of pHrodo E. coli beads [4]: blocked | release of LPS-induced pro-inflammatory cytokines [5]: significantly blocked | inhibition of CK2a1 in vitro (activity class in words) [6]: active
